Measured values reported in paper PMC8877224, “Diverse Secondary Metabolites from the Coral-Derived Fungus Aspergillus hiratsukae SCSIO 5Bn1003” (Marine Drugs, 2022).
Like-named read-outs stand apart in the source and are kept apart here. Where a SMILES comes first, the peptide text is derived from it. [ ]: non-standard residue; d: D form. NMeF = CN[CH](Cc1ccccc1)C(=O)O; 2Abz = Nc1ccccc1C(=O)O

Key:
[1] = antioxidative activity (DPPH radical scavenging); settings: for Inhibition rate antioxidative activity: primary screening, 100 μM; for EC50: DPPH radical scavenging
Description: (§1) All compounds were evaluated for their in vitro cytotoxicity against four human cancer lines, SF-268 (human glioblastoma carcinoma), MCF-7 (breast cancer), HepG-2 (liver cancer), and A549 (lung cancer), as well as antioxidative activity, α-glucosidase inhibitory activity, and antimicrobial activity against the bacteria Staphylococcus aureus and Bacillus subtilis (Tables S1–S3).
(§2) The details of the experimental procedures for cytotoxic and antioxidative bioassays were described previously in our former paper.

MCF-7 (breast cancer) = assay: in vitro cytotoxicity against MCF-7; format: cell-based; settings: Homo sapiens
Description: as §1, §2

HepG-2 (liver cancer) = assay: in vitro cytotoxicity against HepG-2; format: cell-based; settings: Homo sapiens
Description: as §1, §2

[2] = tested on: SF-268 (human glioblastoma carcinoma); assay: in vitro cytotoxicity against SF-268; format: cell-based
Description: as §1, §2

A549 (lung cancer) = assay: in vitro cytotoxicity against A549; format: cell-based; settings: Homo sapiens
Description: as §1, §2

Bacillus subtilis = assay: antibacterial assay, Mueller–Hinton broth microdilution; format: cell-based; settings: for inhibition at 50 µM: primary screening, read-out: Inhibition rate Bacillus subtilis
Description: (§3) All the compounds were tested for antibacterial activity against Staphylococcus aureus and Bacillus subtilis using the Mueller–Hinton broth microdilution method. Ciprofloxacin was used as a positive control.

Staphylococcus aureus = assay: as above; format: cell-based; settings: for inhibition at 50 µM: primary screening, read-out: Inhibition rate Staphylococcus aureus
Description: as §3

[3] = tested on: intersegmental vessel (ISV) formation; assay: zebrafish assay for in vivo anti-angiogenic activity; settings: zebrafish embryos
Description: The maintenance of zebrafish and the collection of embryos followed the method in the literature. One day after fertilization, the embryos were dechorionated with tweezers in a Petri dish coated with 1% agarose and distributed into small Petri dishes (35 × 10 mm) with 3 mL of assay solution, depending on the drug treatment. The embryos receiving a mixture of DMSO (0.1%) were used as the vehicle-treated control and were equivalent to a “no treatment” group. All the experiments were repeated at least three times, with 20 embryos per group.

[4] = MCF7, primary screening, 50 μM, read-out: Inhibition rate MCF-7
[5] = HepG2, primary screening, 50 μM, read-out: Inhibition rate HepG-2
[6] = SF-268, primary screening, 50 μM, read-out: Inhibition rate SF-268
[7] = A549, primary screening, 50 μM, read-out: Inhibition rate A549
[8] = MCF7, MCF-7 cells, mean ± SD, read-out: IC50 MCF-7
[9] = Table 4, mean ± SD, read-out: MIC Bacillus subtilis
[10] = read-out: MIC against Bacillus subtilis
[11] = Table 4, mean ± SD, read-out: MIC Staphylococcus aureus
[12] = read-out: MIC against Staphylococcus aureus

| Compound | Inhibition rate antioxidative activity [1] [%] | inhibition at 50 µM (MCF-7 (breast cancer); [4]) [%] | inhibition at 50 µM (HepG-2 (liver cancer); [5]) [%] | inhibition at 50 µM [2, 6] [%] | inhibition at 50 µM (A549 (lung cancer); [7]) [%] | inhibition at 50 µM (Bacillus subtilis) [%] | inhibition at 50 µM (Staphylococcus aureus) [%] | also measured |
| --- | --- | --- | --- | --- | --- | --- | --- | --- |
| CCCCCCCc1c(O)cc(CC=C(C)C)c(O)c1C=O [Compound 11, flavoglaucin] | 18.20 | 0.49 | 0.39 | 0.81 | 1.53 | 17.5 | 13 |  |
| CC(C)[C@H](C)/C=C/[C@@H](C)[C@H]1CCC2C3=CC(=O)O[C@@]3(O)CC[C@@]21C (stereo partly drawn) [Compound 6, demethylincisterol A2] | 1.00 | 92.2 | 81.4 | 93.2 | 0.41 | 79.6 | 29.4 | IC50 (MCF-7 (breast cancer); [8]): 39.4 ± 0.52 µM; IC50 (HepG-2 (liver cancer); HepG2, HepG-2 cells, mean ± SD, read-out: IC50 HepG-2): 43.6 ± 2.08 µM; IC50 ([2]; SF-268 cells, mean ± SD, read-out: IC50 SF-268): 34.8 ± 0.95 µM; IC50 (A549 (lung cancer); A549 cells, mean ± SD, read-out: IC50 A549): 50.2 ± 0.54 µM; MIC (Bacillus subtilis; [9]): 10.3 ± 0.76 µg/mL; MIC (Bacillus subtilis; [10]): 10.3 ± 0.76 µM |
| CC(C)=CC=CC(C)C1CCC2(C)CC3C(C)=CC(=O)C3C(C(=O)O)=CCC12 (stereo not drawn) [Compound 7, asperophiobolin E] | 3.60 | 38.8 | 40.7 | 9.64 | 0.58 | 94.3 | 82.4 | MIC (Bacillus subtilis; [9]): 17 ± 1.25 µg/mL; MIC (Bacillus subtilis; [10]): 17 ± 1.25 µM; MIC (Staphylococcus aureus; [11]): 103 ± 4.5 µg/mL; MIC (Staphylococcus aureus; [12]): 103 ± 4.5 µM |
| COC(=O)[C@]1(Cc2ccc(O)c(CC=C(C)C)c2)OC(=O)C(O)=C1c1ccc(O)cc1 [Compound 8, butyrolactone I] | 2.50 |  |  |  |  | 91.3 | 84.4 | IC50 (MCF-7 (breast cancer); MCF7, read-out: IC50 MCF-7): 38.6 ± 2.48 µM; inhibition at 50 µM (MCF-7 (breast cancer); MCF7, read-out: Inhibition rate MCF-7): 50.7%; IC50 (HepG-2 (liver cancer); HepG2, read-out: IC50 HepG-2): 31 ± 3.04 µM; inhibition at 50 µM (HepG-2 (liver cancer); HepG2, read-out: Inhibition rate HepG-2): 69.1%; IC50 ([2]; SF-268, read-out: IC50 SF-268): 31.4 ± 1.98 µM; inhibition at 50 µM ([2]; SF-268, read-out: Inhibition rate SF-268): 41.9%; IC50 (A549 (lung cancer); A549, read-out: IC50 A549): 32.3 ± 2.36 µM; inhibition at 50 µM (A549 (lung cancer); A549, read-out: Inhibition rate A549): 21.5%; MIC (Bacillus subtilis; read-out: MIC Bacillus subtilis): 5.3 ± 0.29 µg/mL; MIC (Bacillus subtilis; [10]): 5.3 ± 0.29 µM; MIC (Staphylococcus aureus; read-out: MIC Staphylococcus aureus): 59.54 ± 0.5 µg/mL; MIC (Staphylococcus aureus; [12]): 59.54 ± 0.5 µM |
| COC(=O)C1=C[C@@H](O)[C@@H](O)[C@H](O)C1 [Compound 13, methyl shikimate] | 32.90 | 0.66 | 0.66 | 0.59 | 0.36 | 7.69 | 11.8 |  |
| CC1C(=O)OCC1CC(OC(=O)c1ccccc1)C(C)(O)C1CCC2(O)C3=CC(=O)C4CC(O)C(O)CC4(C)C3CCC12C [Compound 2, 2S,3R,5R,9S,10R,13R,14R,17S,20R,22R,24S,27S-29-norcyasterone-22-O-benzoate] | 1.60 | 1.01 | 1.45 | 1.43 | 1.21 | 0.67 | 4.34 |  |
| C=C1C[C@]2(O)[C@@]3(C)CCC(=O)C(C)(C)C3=C(O)C(=O)[C@@]2(C)[C@@H]2C(=O)O[C@@](C)(C(=O)OC)C(=O)[C@@]12C [Compound 5, terretonin] | 1.90 | 5.62 | 3.52 | 4.58 | 2.97 | 8.18 | 11.8 |  |
| COc1cccc2c1C(=O)c1c(O)c3c(c(O)c1C2=O)C[C@@](O)(C(=O)CO)C[C@@H]3O[C@H]1C[C@H](N)[C@H](O)[C@H](C)O1 [Adriamycin, reference compound] |  |  |  |  |  |  |  | IC50 (MCF-7 (breast cancer); [8]): 2.02 ± 0.04 µM |
| C=CC(C)(C)[C@@]12C[C@H]3C(=O)Nc4ccccc4C(=O)N3[C@H]1N(C=O)c1ccccc12 [Compound 10, epi-aszonalenins B] | 0.40 | 42.2 | 6.7 | 32.9 | 0.73 | 0.3 | 12.6 |  |
| O=C(O)c1cn(C2CC2)c2cc(N3CCNCC3)c(F)cc2c1=O [Ciprofloxacin, reference compound] |  |  |  |  |  |  |  | MIC (Bacillus subtilis; [9]): 0.09 ± 0.003 µg/mL; MIC (Staphylococcus aureus; [11]): 0.07 ± 0.001 µg/mL |
| CC(C)[C@H](C)C[C@@H](O)[C@](C)(O)C1CC[C@@]2(O)C3=CC(=O)C4C[C@@H](O)CC[C@]4(C)C3CC[C@]12C (stereo partly drawn) [Compound 4, schizaeasterone A] | 2.80 | 19.1 | 1.57 | 8.79 | 8.6 | 5.23 | 19.4 |  |
| O=C1O[C@H]([C@@H](O)CO)C(O)=C1O [Ascorbic acid, reference compound] |  |  |  |  |  |  |  | EC50 [1]: 11.3 ± 0.56 µM |
| COC(=O)[C@]1(Cc2ccc(O)c(CC(O)C(C)(C)O)c2)OC(=O)C(O)=C1c1ccc(O)cc1 (stereo partly drawn) [Compound 9, butyrolactones VI] |  | 17.7 | 5.43 | 8.47 | 0.29 | 3.76 | 19.6 | EC50 [1]: 12.2 ± 0.78 µM; IC50 ([1]; as given in abstract, read-out: radical scavenging activities against DPPH, IC50): 12.2 ± 0.78 µM |
| CN1C(=O)C(Cc2ccc(O)cc2)NC(=O)CNC(=O)c2ccccc2NC(=O)C1Cc1ccccc1 (stereo not drawn) [Compound 1, asperhiratide] (cyclo([2Abz]GY[NMeF]); configuration not given here) | 4.30 | 1.03 | 0.38 | 0.82 | 4.4 | 3.87 | 5.22 | inhibitory effect on intersegmental vessel (ISV) formation [3]: weak inhibitory effect |
| C=C1CCC2CC1C2(C)C1CCC(C)C(=O)O1 (stereo not drawn) [Compound 3, asperhiratone] | 2.00 | 3.24 | 0.13 | 2.31 | 0.83 | 9.17 | 7.98 |  |
